{
  "source": "patent US5683714A",
  "about": "“Liposomal cyclosporin pharmaceutical formulation” (NeXstar Pharmaceuticals, Inc., priority 1995, dated 1997)",
  "key": {"[1]": {"system": "resistant L1210 murine leukemia cells", "test": "Multiple drug resistance, 3H-Thymidine uptake", "type": "cell-based", "conditions": "Mus musculus, L1210, read-out: IC50 in Resistant Cells", "method": "(§1) Multiple drug resistance (MDR) was tested in vitro using resistant and sensitive L1210 murine leukemia cells.\n(§2) The final concentration of daunorubicin in each well was 0, 0.3, 1, 3, 10, 30, 100 or 1000 ng/ml. […] Fifty microliters of each daunorubicin concentration was added to one well of a flat bottom 96-well culture plate. […] Each drug combination was tested in triplicate.\n(§3) The resistant and sensitive cells to be added to each well were grown overnight in a CO2 incubator at 37° C. in RPMI-1640 (10% fetal calf serum and 1% pen-strep). The cells were centrifuged at 1000 rpm for 10 minutes. The cell pellet was resuspended in RPMI-1640 (20% fetal calf serum and 2% pen-strep) and adjusted to 1×10^5 cells/ml. The cells were then added to the wells (100 μl (1×10^4 cells)/well) containing the drug combinations and incubated for 24 hours at 37° C. in a CO2 incubator. Positive control wells contained only cells and media and negative control wells contained cells, media, and 20 μl of 1.5M Tris buffer.\n(§4) After 20 hours of incubation, the cells were pulsed with 0.5μ Cu of ^3 H-Thymidine per well. The samples were incubated for another 4 hours. The cells in each well were then harvested using a Skatron Harvester and counted in a beta liquid scintillation counter (LKB)."}, "[2]": {"system": "sensitive L1210 murine leukemia cells", "test": "Multiple drug resistance, 3H-Thymidine uptake", "type": "cell-based", "conditions": "Mus musculus, daunorubicin alone", "method": "as §1, §2, §3, §4"}},
  "data": [
    {"smiles": "COc1cccc2c1C(=O)c1c(O)c3c(c(O)c1C2=O)C[C@@](O)(C(C)=O)C[C@@H]3O[C@H]1C[C@H](N)[C@H](O)[C@H](C)O1", "note": "[Daunorubicin]", "values": [
      {"measurement": "IC50", "setting": "[1]", "result": 0.722, "unit": "µg/mL"},
      {"measurement": "IC50", "setting": "[2]", "result": 0.47, "unit": "µg/mL"}
    ]}
  ]
}
